In one assay the target is GSK3β (Homo sapiens, UniProt P49841). The assay is described as follows: GSK3β kinase assay (Caliper LabChip3000, fluoresceinated peptide substrate). It counts as biochemical. In outline: (§1)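 IC50 values were derived by non-linear regression from eleven-point dose series. Each reaction was held at room temperature for 20 hours and quenched with EDTA.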
A further assay deals with pTau. The assay is described as follows: pTau assay (method not described). It counts as cell-based.
For the next assay, the target named is GSK3α (Homo sapiens, UniProt P49840). The assay is described as follows: biochemical. In outline: as §1
Where [1] appears, read: first value of the cell, 250 pM enzyme, 20 uM ATP, 20 hours at room temperature, read-out: GSK3β/α (nM): GSK3β IC50.
[2] abbreviates: second value of the cell, 250 pM enzyme, 20 uM ATP, 20 hours at room temperature, read-out: GSK3β/α (nM): GSK3α IC50.

Read-outs that look alike come from different tables or passages of the source.

Chain of GSK3β (P49841 whole entry, species assumed): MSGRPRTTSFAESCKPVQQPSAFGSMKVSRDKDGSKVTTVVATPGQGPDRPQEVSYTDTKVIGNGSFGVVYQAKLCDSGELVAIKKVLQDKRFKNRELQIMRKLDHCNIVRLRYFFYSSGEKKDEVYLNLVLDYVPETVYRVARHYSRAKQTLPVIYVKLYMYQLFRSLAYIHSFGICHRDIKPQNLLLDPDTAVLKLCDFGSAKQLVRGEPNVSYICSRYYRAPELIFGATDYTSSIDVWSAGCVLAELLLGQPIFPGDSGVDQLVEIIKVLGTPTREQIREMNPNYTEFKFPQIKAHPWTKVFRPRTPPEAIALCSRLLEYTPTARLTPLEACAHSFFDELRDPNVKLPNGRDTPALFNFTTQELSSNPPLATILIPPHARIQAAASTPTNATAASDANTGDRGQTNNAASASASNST
Chain of GSK3α (P49840 whole entry, species assumed): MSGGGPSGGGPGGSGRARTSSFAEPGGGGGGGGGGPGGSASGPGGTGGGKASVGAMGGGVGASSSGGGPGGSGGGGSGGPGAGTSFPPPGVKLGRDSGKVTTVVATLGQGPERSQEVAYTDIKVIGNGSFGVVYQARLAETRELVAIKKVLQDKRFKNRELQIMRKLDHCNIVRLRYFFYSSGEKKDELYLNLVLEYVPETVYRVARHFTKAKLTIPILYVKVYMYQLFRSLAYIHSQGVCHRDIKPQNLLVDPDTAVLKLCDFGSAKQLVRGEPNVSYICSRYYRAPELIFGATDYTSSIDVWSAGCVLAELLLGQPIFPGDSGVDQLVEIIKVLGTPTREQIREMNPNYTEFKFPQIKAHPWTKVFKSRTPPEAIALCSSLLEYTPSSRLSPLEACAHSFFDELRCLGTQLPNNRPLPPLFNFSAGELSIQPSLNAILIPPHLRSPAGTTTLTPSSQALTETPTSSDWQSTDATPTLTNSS

As for `COc1cccc(-c2cncc(NC(=O)c3ccnc(NC(=O)C4CC4)c3)c2)n1` [Example 164, 2-(cyclopropanecarboxamido)-N-(6-methoxy-[2,3′-bipyridin]-5′-yl)isonicotinamide], the IC50 on GSK3β (setting [1]) is 6 nM; with pTau (read-out: pTau), 270 nM; on GSK3α (setting [2]) it was 1.4 nM.

With `O=C(Nc1cncc(F)c1)c1ccnc(NC(=O)C2CC2)c1` [Example 12, 2-(Cyclopropanecarboxamido)-N-(5-fluoropyridin-3-yl)isonicotinamide], the IC50 at GSK3β (setting [1]) was 33 nM; with pTau (read-out: pTau), 1400 nM; on GSK3α (setting [2]), 16 nM.

On to `O=C(Nc1cnccc1N1CCOCC1)c1ccnc(NC(=O)C2CC2)c1` [Example 30, 2-(Cyclopropanecarboxamido)-N-(4-morpholinopyridin-3-yl)isonicotinamide], for which the IC50 was 1 nM against GSK3β, 23 nM in the assay on pTau (read-out: pTau) and 0.54 nM on GSK3α (setting [2]).

With `O=C(Nc1cnc2ccccc2c1)c1ccnc(NC(=O)C2CC2)c1` [Example 5, 2-(Cyclopropanecarboxamido)-N-(quinolin-3-yl)isonicotinamide], the IC50 was 570 nM at GSK3β (setting [1]), ≥ 10000 nM in the assay with pTau (read-out: pTau) and 230 nM at GSK3α (setting [2]).

For `O=C(Nc1nc2cnccc2s1)c1ccnc(NC(=O)C2CC2)c1` [Example 182, 2-(cyclopropanecarboxamido)-N-(thiazolo[4,5-c]pyridin-2-yl)isonicotinamide], the figures for the IC50 on GSK3β (setting [1]), in the assay with pTau (read-out: pTau) and on GSK3α (setting [2]) were 1300 nM, ≥ 10000 nM and 470 nM, respectively.

`O=C(Nc1cnccc1-c1ccccc1)c1ccnc(NC(=O)[C@@H]2CC[C@@H](O)C2)c1` (relative stereo) [Example 230, 2-((1,3-Trans)-3-hydroxycyclopentanecarboxamido)-N-(4-phenylpyridin-3-yl)isonicotinamide]: the IC50 against GSK3β was determined as 2.5 nM; in the assay with pTau (read-out: pTau (nM)), 73 nM; against GSK3α, 0.68 nM.

With `O=C(Nc1cnccc1-c1ccc(Cl)cc1)c1ccnc(NC(=O)C2CC(F)C2)c1` (single isomer, unassigned) [Example 222, N-(4-(4-chlorophenyl)pyridin-3-yl)-2-((1,3-trans)-3-fluorocyclobutanecarboxamido)isonicotinamide], the IC50 is 1.7 nM at GSK3β (read-out: GSK3β/α (nM): GSK3β IC50, first value of the cell, 250 pM enzyme, 20 uM ATP, 20 hours at room temperature); 37 nM in the assay with pTau (read-out: pTau); 1.3 nM on GSK3α (read-out: GSK3β/α (nM): GSK3α IC50, second value of the cell, 250 pM enzyme, 20 uM ATP, 20 hours at room temperature).

For `O=C(Nc1cncc(-c2cncc(Cl)c2)c1)c1ccnc(NC(=O)C2CC2)c1` [Example 160], the IC50 against GSK3β is 3.9 nM; in the assay on pTau (read-out: pTau), 150 nM; at GSK3α (setting [2]), 1.6 nM.

`CC(C)C(=O)Nc1cc(C(=O)Nc2cnccc2OCC2(C)CC2)ccn1` [Example 201, 2-isobutyramido-N-(4-((1-methylcyclopropyl)methoxy)pyridin-3-yl)isonicotinamide]: the IC50 is 1.1 nM on GSK3β (setting [1]), 26 nM with pTau (read-out: pTau) and 0.4 nM at GSK3α (setting [2]).

`O=C(Nc1cncc(-c2ccccc2)c1)c1ccnc(NC(=O)C2CCC(F)(F)C2)c1` (stereo not drawn) [Example 233, 2-(3,3-difluorocyclopentanecarboxamido)-N-(5-phenylpyridin-3-yl)isonicotinamide]: the values for the IC50 on GSK3β (setting [1]), in the assay with pTau (read-out: pTau) and on GSK3α (setting [2]) were 1 nM, 340 nM and 0.33 nM, respectively.

On to `O=C(Nc1cncc(-c2cccc(F)c2F)c1)c1ccnc(NC(=O)C2CCC(F)(F)C2)c1` (stereo not drawn) [Example 235, 2-(3,3-difluorocyclopentanecarboxamido)-N-(5-(2,3-difluorophenyl)pyridin-3-yl)isonicotinamide], for which the IC50 was 1.4 nM on GSK3β, 130 nM with pTau (read-out: pTau (nM)) and 0.6 nM on GSK3α.

Regarding `O=C(Nc1cncc(-c2ccccc2F)c1)c1ccnc(NC(=O)C2CCC(F)(F)C2)c1` (stereo not drawn) [Example 234, 2-(3,3-difluorocyclopentanecarboxamido)-N-(5-(2-fluorophenyl)pyridin-3-yl)isonicotinamide], the figures for the IC50 on GSK3β, in the assay on pTau (read-out: pTau) and at GSK3α (setting [2]) were 1.4 nM, 160 nM and 0.9 nM, respectively.

`O=C(Nc1cncc(-c2ccc(F)nc2)c1)c1ccnc(NC(=O)C2CC2)c1` [Example 163, 2-(cyclopropanecarboxamido)-N-(6′-fluoro-[3,3′-bipyridin]-5-yl)isonicotinamide]: the IC50 on GSK3β (setting [1]) was 6 nM; in the assay with pTau (read-out: pTau) it was 130 nM; on GSK3α (setting [2]), 1.7 nM.

Consider `O=C(Nc1cncc(-c2ccccc2Cl)c1)c1ccnc(NC(=O)C2CCC(F)(F)C2)c1` (stereo not drawn) [Example 237, N-(5-(2-chlorophenyl)pyridin-3-yl)-2-(3,3-difluorocyclopentanecarboxamido)isonicotinamide], for which the IC50 on GSK3β worked out at 4.1 nM; in the assay on pTau (read-out: pTau), 94 nM; at GSK3α (setting [2]), 0.78 nM.
